These results are taken from US4512986A, “Progrestationally active steroids” (priority 1983, dated 1985).

Read-outs that look alike come from different tables or passages of the source.

For assay [1], the target named is T1, Cytosol Progesterone Receptor of the Estrogen-primed Immature Rabbit Uterus (Oryctolagus cuniculus, UniProt P06186).
T1 construct: cytosol progesterone receptor of the estrogen-primed immature rabbit uterus; tissue Dutchland Laboratories, Inc., Denver, Pa (animals); host or cells: uterus cytosol of estradiol-treated immature female New Zealand White rabbits
T1 sequence (P06186 1-930): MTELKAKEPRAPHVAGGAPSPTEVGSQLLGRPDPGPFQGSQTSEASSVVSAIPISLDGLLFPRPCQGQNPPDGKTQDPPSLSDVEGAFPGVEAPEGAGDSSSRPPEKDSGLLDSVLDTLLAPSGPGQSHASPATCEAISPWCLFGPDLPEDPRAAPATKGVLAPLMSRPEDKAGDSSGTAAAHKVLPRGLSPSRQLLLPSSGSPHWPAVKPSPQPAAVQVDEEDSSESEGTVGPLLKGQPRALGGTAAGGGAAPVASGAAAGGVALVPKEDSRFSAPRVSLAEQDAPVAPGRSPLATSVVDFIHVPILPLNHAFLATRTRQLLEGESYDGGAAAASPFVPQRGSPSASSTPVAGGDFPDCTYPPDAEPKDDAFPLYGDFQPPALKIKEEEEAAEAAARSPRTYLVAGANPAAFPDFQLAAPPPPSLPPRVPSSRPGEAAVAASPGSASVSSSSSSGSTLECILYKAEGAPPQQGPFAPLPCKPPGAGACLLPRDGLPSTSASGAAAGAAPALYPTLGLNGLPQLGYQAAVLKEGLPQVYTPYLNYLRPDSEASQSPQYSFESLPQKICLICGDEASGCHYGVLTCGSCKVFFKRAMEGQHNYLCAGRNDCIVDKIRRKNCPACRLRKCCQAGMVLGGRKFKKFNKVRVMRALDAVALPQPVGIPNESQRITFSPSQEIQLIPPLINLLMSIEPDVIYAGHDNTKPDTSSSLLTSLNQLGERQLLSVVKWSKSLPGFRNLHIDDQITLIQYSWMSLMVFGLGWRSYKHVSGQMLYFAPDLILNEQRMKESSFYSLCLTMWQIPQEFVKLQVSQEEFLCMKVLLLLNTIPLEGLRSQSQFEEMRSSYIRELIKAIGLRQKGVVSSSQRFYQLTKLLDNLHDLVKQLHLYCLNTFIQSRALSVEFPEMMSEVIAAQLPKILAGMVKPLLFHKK
Conditions: relative to progesterone = 100; literature; cited from earlier work.

Assay [2] concerns the target T1, Cytosol Progesterone Receptor of the Estrogen-primed Immature Rabbit Uterus. The experiment in a line: Relative binding affinity for progesterone receptor (competition with 3H-progesterone). Also on record: species or system rabbit (New Zealand White). Conditions: 16-18 hour incubation, progesterone = 100. How it is done: RBA values recorded at 0° C. after short incubation times (e.g., 2 hr) mainly reflect differences in the association rate constants of the competing ligands, whereas those measured after long incubation times (e.g., 16 to 24 hr) and/or higher temperatures predominantly are influenced by differences in the dissociation rate constants of the competing ligands. RBA's determined after short incubation times primarily reflect the association of the competitor compared to the natural hormone. Conversely, RBA's measured after long incubation times reflect the dissociation rate of the competitor compared to the natural hormone.
The assay components are combined, allowed to equilibrate, and unbound radioactivity removed by charcoal adsorption.
Animal species. Immature female New Zealand White rabbits weighing 0.8 to 1.0 kg (Dutchland Laboratories, Inc., Denver, Pa).
Pretreatment. Subcutaneous treatment with 15 μg 17β-estradiol/0.6 ml sesame oil each morning (0830 to 0930 hr) for three days. Animals sacrificed 24 hr after final injection.
Tissue. Uterus; each uterus weighed about 1.0 g and two or three uteri were pooled for each assay.
Buffer. (A) 0.01M TES, pH 7.4, 1 mM EDTA, 0.012M thioglycerol and 30% glycerol for cytosol preparation and ^3 H-steroid, unlabeled hormone and compound solutions. (B) 0.01M TES, pH 7.4, 1 mM EDTA and 0.012M thioglycerol for charcoal solution.
Homogenization. Five or six 5-second bursts with 30 second cooling periods between bursts using Brinkman Polytron Pt. 10 at 3.5 rheostat setting.
Temperature. 0°-4° C. for all steps.
Centrifugation. 45,000 rpm for 1 hr, 50 Ti rotor, Beckman L8-80 ultracentrifuge.
Incubation. 16-18 hr at 4°-6° C.
Concentations. 1×10^-10 M to 1×10^-5 M (7 concentrations).
Method. Charcoal adsorption method used to remove unbound radioactivity. Five-tenths ml of dextran-coated charcoal (0.5% Norit A and 0.05% dextran T-70) added to all tubes except total radioactivity tubes (0.5 ml buffer [B] added), tubes vortexed 3-5 sec, allowed to sit for 10 minutes and centrifuged 10 minutes at 2000 rpm in Beckman TJ-6 centrifuge at 0°-4° C.
Data Interpretation. […] The relative binding affinity (RBA) of each compound was calculated by using the following equation. [formula] where

For assay [3], the system named is uterine endometrium of estrone-primed immature rabbits. The experiment in a line: Clauberg assay (progestational activity, McPhail). Conditions: for McPhail Index (0-4) (X ± S.D.): 0 none, 4 maximal. The assay is classed as in vivo, rabbit (New Zealand White).
Assay [4] relates to estrogen-primed immature rabbits. Conditions: cited from earlier work.
Assay [5] relates to endometrium of estrogen-primed ovariectomized or climacteric women. Conditions: cited from earlier work.
For assay [6] the following is noted: general knowledge; cited from earlier work.
The test system of assay [7] is androgen target organs of castrate immature male rats. The experiment in a line: Anti-androgenic activity in the castrate immature rat assay. The assay is classed as in vivo. Conditions: for anti-androgenic activity, in words: with testosterone sc 400 μg/rat/day, doses up to 400 μg/rat/day (progestagen oral; progesterone sc). How it is done: The oral anti-androgenic activity of 6-methyl-6-dehydro-17α-ethynylprogesterone was evaluated in the castrate immature male rat assay [Lerner et al., Proc. Soc. […] The assay is briefly described in the footnotes to Table 11.
*This assay employs castrate immature rats. For methods refer to Lerner,
L. J., A. Bianchi and A. Borman, Proc. Soc.
**Groups of rats (7/group) were given daily injections of 0.3 ml sesame
oil (control) or compound (in 0.3 ml sesame oil) for 7 days. Some groups
also concurrently received progestational compounds by the sc or oral
route of administration in order to evaluate antiandrogenic activity. One
day after the final doses, the animals were sacrificed and the androgen
target organs indicated were weighed.
***Statistically significant (p < 0.05) lower organ weights versus the
testosterone, sc, (400 μg/rat/day) group as determined by Analysis of
Variance coupled with Duncan's Multiple Range Test.

In the next assay the test system is cycling rats. The experiment in a line: Blockade of ovulation in rats. Conditions: for No. Rats Ovulated (of rats treated) / No. of Oviductal Eggs in Rats that Ovulated (X ± S.D.): single sc. The class given is in vivo, rat (Charles River CD). From the text: The treated rats were sacrificed on the morning of expected estrus and eggs, if present, were flushed from the oviducts and counted. | *This assay employs cycling Charles River CD rats. For methods refer to | Beattie, C. W. and A. Corbin, Endocrinology 97, 885, 1975. […] | diestrus. Rats were sacrificed 43 to 44 hr later on the morning of | expected estrus. Eggs, if present, were flushed from oviducts and counted | under a stereomicroscope.

Where [8] appears, read: oral, 100 μg/rabbit daily, listed as 6α-Methyl-17α-acetoxyprogesterone.
Setting [9] is: oral 25 μg/rat daily + testosterone sc 400.
[10] abbreviates: oral 100 μg/rat daily + testosterone sc 400.
Where [11] appears, read: oral 400 μg/rat daily + testosterone sc 400.
Where [12] appears, read: sc 25 μg/rat daily + testosterone sc 400.
Setting [13] is: sc 100 μg/rat daily + testosterone sc 400.
Setting [14] is: sc 400 μg/rat daily + testosterone sc 400.

For the compound `CC(=O)[C@H]1CC[C@H]2[C@@H]3CCC4=CC(=O)CC[C@@H]4[C@H]3CC[C@]12C` [19-norprogesterone], the “RBA (Kontula et al. 1975)” value in assay [1] was 258.

`CC(=O)O[C@]1(C(C)=O)CC[C@H]2[C@@H]3C[C@H](C)C4=CC(=O)CC[C@]4(C)[C@H]3CC[C@@]21C` [Medroxyprogesterone Acetate, 6α-Methyl-17α-acetoxyprogesterone, reference compound]: the RBA in assay [2] (Assay 4) was determined as 57%; in assay [2] (Assay 5) it was 133%; in assay [2] (Assay 6), 143%. Besides, the “Uterine Weight (X ± S.D.)” value in assay [3] (oral, 5 μg/rabbit daily) is 1.08 ± 0.01 g; in assay [3] (oral, 10 μg/rabbit daily), 1.35 ± 0.34 g; in assay [3] (oral, 25 μg/rabbit daily), 1.12 ± 0.19 g; in assay [3] (oral, 50 μg/rabbit daily), 2.82 ± 0.92 g; in assay [3] (oral, 100 μg/rabbit daily) it was 2.65 ± 0.35 g; in assay [3] (setting [8]), 2.11 ± 1.28 g. Besides, the “Uterine Weight (X ± S.D.)” value was 3.30 ± 0.41 g in assay [3] (oral, 200 μg/rabbit daily) and 3.73 ± 0.61 g in assay [3] (oral, 400 μg/rabbit daily). Also, the “McPhail Index (0-4) (X ± S.D.)” value in assay [3] (oral, 5 μg/rabbit daily) worked out at 0.29 ± 0.06; in assay [3] (oral, 10 μg/rabbit daily), 0.71 ± 0.06; in assay [3] (oral, 25 μg/rabbit daily), 0.25 ± 0.10; in assay [3] (oral, 50 μg/rabbit daily), 3.00 ± 0.83; in assay [3] (oral, 100 μg/rabbit daily) it was 3.90 ± 0.13; in assay [3] (setting [8]), 2.66 ± 1.10. Further, the “McPhail Index (0-4) (X ± S.D.)” value in assay [3] (oral, 200 μg/rabbit daily) stood at 4.00 ± 0.00; in assay [3] (oral, 400 μg/rabbit daily) it was 4.00 ± 0.00. Also, the “Threshold or effective dose, Clauberg Assay” value in assay [4] (oral) and in assay [4] (s.c. (i.m.)) was 0.01-0.03 mg/animal each time. The “Threshold or effective dose, Kaufman Assay” value in assay [5] (oral) was 40-70 mg/cycle. The “oral progestational activity, in words” value in assay [6] is reported as “potent orally active progestational compounds”.

In the case of `CC(=O)O[C@]1(C(C)=O)CC[C@H]2[C@@H]3C=C(C)C4=CC(=O)CC[C@]4(C)[C@H]3CC[C@@]21C` [Megestrol Acetate, 6-Methyl-6-dehydro-17α-acetoxyprogesterone], the figures for the “Levator Ani weight (X ± S.D.)” value in assay [7] (setting [9]), in assay [7] (setting [10]) and in assay [7] (setting [11]) were 50 ± 8 mg, 55 ± 12 mg and 65 ± 12 mg, respectively. Besides, the results for the “Seminal Vesicles weight (X ± S.D.)” value in assay [7] (setting [9]), in assay [7] (setting [10]) and in assay [7] (setting [11]) were 125 ± 23 mg, 128 ± 36 mg and 120 ± 21 mg, respectively. In addition, the “Ventral Prostate weight (X ± S.D.)” value in assay [7] (setting [9]) is on record as 42 ± 20 mg; in assay [7] (setting [10]) it was 54 ± 13 mg; in assay [7] (setting [11]) it was 48 ± 15 mg. Moreover, in assay [7], the “anti-androgenic activity, in words” value was “significant anti-androgenic activity”. Also, the “Threshold or effective dose, Clauberg Assay” value in assay [4] (oral) is listed as 0.03 mg/animal; in assay [4] (s.c. (i.m.)), 0.01-0.03 mg/animal. The “Threshold or effective dose, Kaufman Assay” value in assay [5] (oral) was 35-50 mg/cycle. The “oral progestational activity, in words” value in assay [6] is reported as “potent orally active progestational compounds”.

For `CC(=O)[C@H]1CC[C@H]2[C@@H]3CCC4=CC(=O)CC[C@]4(C)[C@H]3CC[C@]12C` [Progesterone], the “Uterine Weight (X ± S.D.)” value in assay [3] (sc, 50 μg/rabbit daily) came to 1.09 ± 0.09 g; in assay [3] (sc, 100 μg/rabbit daily), 1.64 ± 0.23 g. Moreover, the “ovulation, in words” value in the assay on cycling rats (500 μg progesterone, 100, 250 or 500 μg 17α-ethynylprogesterone) was “ovulation was blocked in most rats”; with cycling rats (100 or 250 μg progesterone, 50 μg 17α-ethynylprogesterone), “ovulated in a normal fashion”. The “No. Rats Ovulated (of rats treated)” value is on record as 5/5 in the assay with cycling rats (100 μg/rat), 4/5 in the assay on cycling rats (250 μg/rat) and 1/4 with cycling rats (500 μg/rat). Moreover, the “No. of Oviductal Eggs in Rats that Ovulated (X ± S.D.)” value in the assay on cycling rats (100 μg/rat) was 7.8 ± 3.8; in the assay on cycling rats (250 μg/rat) it was 7.0 ± 3.8; with cycling rats (500 μg/rat) it was 9.0. Moreover, the “Levator Ani weight (X ± S.D.)” value in assay [7] (setting [12]) worked out at 54 ± 15 mg; in assay [7] (setting [13]) it was 58 ± 15 mg; in assay [7] (setting [14]), 59 ± 14 mg. Also, the “Seminal Vesicles weight (X ± S.D.)” value in assay [7] (setting [12]) is on record as 157 ± 19 mg; in assay [7] (setting [14]) it was 162 ± 26 mg. For the same compound, the “Ventral Prostate weight (X ± S.D.)” value was 71 ± 28 mg in assay [7] (setting [12]), 80 ± 27 mg in assay [7] (setting [13]) and 60 ± 26 mg in assay [7] (setting [14]). Besides, the “anti-androgenic activity, in words” value in assay [7] is “inactive”. Besides, the “RBA (Kontula et al. 1975)” value in assay [1] is reported as 100. The “Threshold or effective dose, Clauberg Assay” value is reported as 10.0 mg/animal in assay [4] (oral) and 0.5 mg/animal in assay [4] (s.c. (i.m.)). Also, in assay [5] (i.m.), the “Threshold or effective dose, Kaufman Assay” value is listed as 200 mg/cycle. Besides, the “oral progestational activity, in words” value in assay [6] is “only weakly active when taken orally”.
